# Data as given in patent US20240285724A1, “METHODS AND COMPOSITIONS FOR TREATING OCULAR DISORDERS AND DISEASES” (ONL Therapeutics, Inc., priority 2021, published 2024).
# Residues, ends and D or L forms follow the SMILES beside them.
# Key:
# [1] = test system: retinal pigment epithelial cell death; test: Sodium iodate (NaIO3) challenge study, lesion area by fluorescein angiography; assay type: in vivo; settings: rabbit
# Procedure: The resulting area was then measured.
# [2] = Ocular tissue concentration of ONL1204 after intravitreal injection in rabbit eye (LC-MS/MS); settings: rabbit vitreous humor; single dose 0.1 mg/eye IVT, days 0 to 168
# Procedure: Standards and blanks were vortex mixed. […] Two hundred (200) uL of water was added.
# The samples were then vortex mixed for 5 minutes.
# The samples were dried with nitrogen at 35° C.
smiles,measurement,setting,value
CC[C@H](C)[C@H](NC(=O)[C@H](Cc1ccc(O)cc1)NC(=O)[C@H](CC(N)=O)NC(=O)[C@@H](NC(=O)[C@H](C)NC(=O)CNC(=O)[C@H](CC(C)C)NC(=O)[C@H](Cc1ccc(O)cc1)NC(=O)[C@@H](NC(=O)[C@H](Cc1cnc[nH]1)NC(=O)[C@@H](N)Cc1cnc[nH]1)[C@@H](C)CC)C(C)C)C(=O)N[C@@H](Cc1ccc(O)cc1)C(N)=O [ONL1204] (H-HHIYLGAVNYIY-NH2),Lesion size vs negative control,"[1]; 25 ug per eye IVT on Day 0, NaIO3 challenge Day 4",significantly lower than negative control
same,Lesion size vs negative control,"[1]; 100 ug per eye IVT on Day 0, NaIO3 challenge Day 4",significantly lower than negative control
same,Lesion size vs negative control,"[1]; 100 ug per eye IVT on Day 0, NaIO3 challenge Day 14",significantly smaller lesion size then both negative controls and those treated with 25 ug
same,Lesion size vs negative control,"[1]; 100 ug per eye IVT on Day 0, NaIO3 challenge Day 28",significantly smaller lesion size then both negative control animals and those treated with 25 ug
same,t1/2 (half-life in the vitreous),[2],279.8 days
